According to patent US20120238767A1, “ANTIOXIDANT INFLAMMATION MODULATORS: NOVEL DERIVATIVES OF OLEANOLIC ACID” (priority 2008, published 2012):

Tests used:
[1] = system: IFNγ-induced NO production in RAW264.7 macrophages; assay: Suppression of IFNγ-induced NO production (Griess reagent); assay type: cell-based, mouse; details: RAW264.7, 20 ng/ml IFNγ for 24 hours, 2 hours pre-treatment
Description: (§1) FIGS. 1-11 and 22. Inhibition of NO Production. RAW264.7 macrophages were pre-treated with DMSO or drugs at various concentrations (nM) for 2 hours, then treated with 20 ng/ml IFNγ for 24 hours. NO concentration in media was determined using a Griess reagent system; cell viability was determined using WST-1 reagent. Nitric Oxide production and cell viability. RAW264.7 macrophages were pre-treated with DMSO or drugs for 2 hours, then treated with recombinant mouse IFNγ (Sigma) for 24 hours. NO concentration in media was determined using the Griess reagent system (Promega). Cell viability was determined using WST-1 reagent (Roche).

RAW264.7 macrophages = assay: Cell viability (WST-1 reagent); assay type: cell-based, mouse; details: RAW264.7, 20 ng/ml IFNγ
Description: as §1

SMILES | IC50 [1] [nM] | IC50 (RAW264.7 macrophages) [nM] | IC50 ([1]; Mus musculus) [nM] | IC50 (RAW264.7 macrophages; Mus musculus) [nM]
COC(=O)[C@]12CCC(C)(C)C[C@H]1[C@H]1C(=O)C=C3[C@@]4(C)C=C(F)C(=O)C(C)(C)[C@@H]4CC[C@@]3(C)[C@]1(C)CC2 [Compound 402-05, (4aS,6aR,6bS,8aR,12aR,14aR,14b5)-methyl-11-fluoro-2,2,6a,6b,9,9,12a-heptamethyl-10,14-dioxo-1,2,3,4,4a,5,6,6a,6b,7,8,8a,9,10,12a,14,14a,14b-octadecahydropicene-4a-carboxylate] | > 200 | > 200 |  | 
COC(=O)[C@]12CCC(C)(C)C[C@H]1[C@H]1C(=O)C=C3[C@@]4(C)C=C(c5nnn[nH]5)C(=O)C(C)(C)[C@@H]4CC[C@@]3(C)[C@]1(C)CC2 [Compound 402-06, (4aS,6aR,6bS,8aR,12aS,14aR,14bS)-methyl-2,2,6a,6b,9,9,12a-heptamethyl-10,14-dioxo-11-(1H-tetrazol-5-yl)-1,2,3,4,4a,5,6,6a,6b,7,8,8a,9,10,12a,14,14a,14b-octadecahydropicene-4a-carboxylate] |  |  | > 200 | > 200
COC(=O)[C@]12CCC(C)(C)C[C@H]1[C@H]1C(=O)C=C3[C@@]4(C)C=C(C(=O)NO)C(=O)C(C)(C)[C@@H]4CC[C@@]3(C)[C@]1(C)CC2 [Compound 402-07, (4aS,6aR,6bS,8aR,12aS,14aR,14b5)-methyl-11-(hydroxycarbamoyl)-2,2,6a,6b,9,9,12a-heptamethyl-10,14-dioxo-1,2,3,4,4a,5,6,6a,6b,7,8,8a,9,10,12a,14,14a,14b-octadecahydropicene-4a-carboxylate] |  |  | > 200 | > 200
COC(=O)[C@]12CCC(C)(C)C[C@H]1[C@H]1C(=O)C=C3[C@@]4(C)C=C(C(=O)NS(C)(=O)=O)C(=O)C(C)(C)[C@@H]4CC[C@@]3(C)[C@]1(C)CC2 [Compound 402-08, (4aS,6aR,6bS,8aR,12aS,14aR,14bS)-methyl-2,2,6a,6b,9,9,12a-heptamethyl-11-(methylsulfonylcarbamoyl)-10,14-dioxo-1,2,3,4,4a,5,6,6a,6b,7,8,8a,9,10,12a,14,14a,14b-octadecahydropicene-4a-carboxylate] |  |  | 62 | > 200
CC1(C)CC[C@]2(C(=O)NO)CC[C@]3(C)[C@H](C(=O)C=C4[C@@]5(C)C=C(C#N)C(=O)C(C)(C)[C@@H]5CC[C@]43C)[C@@H]2C1 [Compound 402-09, (4aS,6aR,6bS,8aR,12aS,14aR,14bS)-11-cyano-N-hydroxy-2,2,6a,6b,9,9,12a-heptamethyl-10,14-dioxo-1,2,3,4,4a,5,6,6a,6b,7,8,8a,9,10,12a,14,14a,14b-octadecahydropicene-4a-carboxamide] |  |  | 4.2 | > 200
CONC(=O)[C@]12CCC(C)(C)C[C@H]1[C@H]1C(=O)C=C3[C@@]4(C)C=C(C#N)C(=O)C(C)(C)[C@@H]4CC[C@@]3(C)[C@]1(C)CC2 [Compound 402-10, (4aS,6aR,6bS,8aR,12aS,14aR,14bS)-11-cyano-N-methoxy-2,2,6a,6b,9,9,12a-heptamethyl-10,14-dioxo-1,2,3,4,4a,5,6,6a,6b,7,8,8a,9,10,12a,14,14a,14b-octadecahydropicene-4a-carboxamide] |  |  | 2.3 | > 200
CC1(C)CC[C@]2(C(=O)N=[N+]=[N-])CC[C@]3(C)[C@H](C(=O)C=C4[C@@]5(C)C=C(C#N)C(=O)C(C)(C)[C@@H]5CC[C@]43C)[C@@H]2C1 [Compound 402-11, (4aS,6aR,6bS,8aR,12aS,14aR,14bS)-11-cyano-2,2,6a,6b,9,9,12a-heptamethyl-10,14-dioxo-1,2,3,4,4a,5,6,6a,6b,7,8,8a,9,10,12a,14,14a,14b-octadecahydropicene-4a-carbonyl azide] |  |  | 2.5 | 150
COC(=O)[C@]12CCC(C)(C)C[C@H]1[C@H]1C(=O)C=C3[C@@]4(C)C(C)=C(C#N)C(=O)C(C)(C)[C@@H]4CC[C@@]3(C)[C@]1(C)CC2 [Compound 402-22, (4 aS,6aR,6bS,8aR,12 aR,14 aR,14bS)-methyl-11-cyano-2,2,6a,6b,9,9,12,12a-octamethyl-10,14-dioxo-1,2,3,4,4a,5,6,6a,6b,7,8,8a,9,10,12a,14,14a,14b-octadecahydropicene-4a-carboxylate] |  |  | > 200 | > 200
CC1(C)CC[C@]2(C(=O)NCCO)CC[C@]3(C)[C@H](C(=O)C=C4[C@@]5(C)C=C(C#N)C(=O)C(C)(C)[C@@H]5CC[C@]43C)[C@@H]2C1 [Compound 402-40, (4aS,6aR,6bS,8aR,12aS,14aR,14bS)-11-cyano-N-(2-hydroxyethyl)-2,2,6a,6b,9,9,12a-heptamethyl-10,14-dioxo-1,2,3,4,4a,5,6,6a,6b,7,8,8a,9,10,12a,14,14a,14b-octadecahydropicene-4a-carboxamide] |  |  | 17 | 75
COC(=O)[C@]12CCC(C)(C)C[C@H]1[C@H]1C(=O)C=C3[C@@]4(C)CC(C#N)=C(OC(C)=O)C(C)(C)[C@@H]4CC[C@@]3(C)[C@]1(C)CC2 [Compound 402-47, (4aS,6aR,6bS,8aR,12aS,14aR,14bS)-methyl-10-acetoxy-11-cyano-2,2,6a,6b,9,9,12a-heptamethyl-14-oxo-1,2,3,4,4a,5,6,6a,6b,7,8,8a,9,12,12a,14,14a,14b-octadecahydropicene-4a-carboxylate] |  |  | > 200 | > 200
CC1(C)CC[C@]2(C(=O)F)CC[C@]3(C)[C@H](C(=O)C=C4[C@@]5(C)C=C(C#N)C(=O)C(C)(C)[C@@H]5CC[C@]43C)[C@@H]2C1 [Compound 402-55, (4aS,6aR,6bS,8aR,12aS,14aR,14bS)-11-cyano-2,2,6a,6b,9,9,12a-heptamethyl-10,14-dioxo-1,2,3,4,4a,5,6,6a,6b,7,8,8a,9,10,12a,14,14a,14b-octadecahydropicene-4a-carbonyl fluoride] |  |  | ~3 | 100
COC(=O)[C@]12CCC(C)(C)C[C@H]1[C@H]1C(=O)C=C3[C@@]4(C)C=C(C#N)C(=O)[C@](C)(CO)[C@@H]4CC[C@@]3(C)[C@]1(C)CC2 [Compound 63301, (4aS,6aR,6bS,8aR,9S,12aS,14aR,14b5)-methyl 11-cyano-9-(hydroxymethyl)-2,2,6a,6b,9,12a-hexamethyl-10,14-dioxo-1,2,3,4,4a,5,6,6a,6b,7,8,8a,9,10,12a,14,14a,14b-octadecahydropicene-4a-carboxylate] |  |  | ~3.2 | ~120
COCOC[C@@]1(C)C(=O)C(C#N)=C[C@]2(C)C3=CC(=O)[C@@H]4[C@@H]5CC(C)(C)CC[C@]5(C(=O)OC)CC[C@@]4(C)[C@]3(C)CC[C@@H]12 [Compound 63302, (4aS,6aR,6bS,8aR,9S,12aS,14aR,14bS)-methyl 11-cyano-9-((methoxymethoxy)methyl)-2,2,6a,6b,9,12a-hexamethyl-10,14-dioxo-1,2,3,4,4a,5,6,6a,6b,7,8,8a,9,10,12a,14,14a,14b-octadecahydropicene-4a-carboxylate] |  |  | ~18 | ~100
COC(=O)[C@]12CCC(C)(C)C[C@H]1[C@H]1C(=O)C=C3[C@@]4(C)C=C(C#N)C(=O)C(C)(C)[C@@H]4[C@H](O)C[C@@]3(C)[C@]1(C)CC2 [Compound 63307, (4aS,6aR,6bS,8R,8aR,12aS,14aR,14bS)-methyl 11-cyano-8-hydroxy-2,2,6a,6b,9,9,12a-heptamethyl-10,14-dioxo-1,2,3,4,4a,5,6,6a,6b,7,8,8a,9,10,12a,14,14a,14b-octadecahydropicene-4a-carboxylate] |  |  | ~60 | > 200
COC(=O)[C@]12CCC(C)(C)C[C@H]1[C@H]1C(=O)C=C3[C@@]4(C)C=C(C#N)C(=O)C(C)(C)[C@@H]4C(=O)C[C@@]3(C)[C@]1(C)CC2 [Compound 63309, (4aS,6aR,6bS,8aR,12aS,14aR,14bS)-methyl 11-cyano-2,2,6a,6b,9,9,12a-heptamethyl-8,10,14-trioxo-1,2,3,4,4a,5,6,6a,6b,7,8,8a,9,10,12a,14,14a,14b-octadecahydropicene-4a-carboxylate] |  |  | ~12 | > 200
COC(=O)[C@]12CCC(C)(C)C[C@H]1[C@H]1C(=O)C=C3[C@@]4(C)[C@@H](O)[C@](O)(C#N)C(=O)C(C)(C)[C@@H]4CC[C@@]3(C)[C@]1(C)CC2 [Compound 63316, (4aS,6aR,6bS,8aR,11R,12R,12aS,14aR,14bS)-methyl 11-cyano-11,12-dihydroxy-2,2,6a,6b,9,9,12a-heptamethyl-10,14-dioxo-1,2,3,4,4a,5,6,6a,6b,7,8,8a,9,10,11,12,12a,14,14a,14b-icosahydropicene-4a-carboxylate] |  |  | ~80 | > 200
COC(=O)[C@]12CCC(C)(C)C[C@H]1[C@H]1C(=O)C=C3[C@@]4(C)C=C(C(F)(F)F)C(=O)C(C)(C)[C@@H]4CC[C@@]3(C)[C@]1(C)CC2 [Compound 63320, (4aS,6aR,6bS,8aR,12aS,14aR,14bS)-methyl 2,2,6a,6b,9,9,12a-heptamethyl-10,14-dioxo-11-(trifluoromethyl)-1,2,3,4,4a,5,6,6a,6b,7,8,8a,9,10,12a,14,14a,14b-octadecahydropicene-4a-carboxylate] |  |  | ~12 | 
